Columns and labels:
TrkA = molecular target: T1, TrkA (Homo sapiens, UniProt P04629); experiment: TrkA tyrosine kinase assay (33P phosphorylation of polyGluTyr by recombinant enzyme); format: biochemical; conditions: recombinant kinase domain of human TrkA, PGT substrate, 30 uM ATP
T1 construct: The kinase domain of the human TrkA receptor is expressed in Sf9 insect cells as a histidine (His)-fusion protein; His; made in house; host or cells: Sf9 insect cells (baculovirus)
Source text: The ability of compounds of the present invention to inhibit tyrosine kinase activity of TrkA may be measured using a recombinant enzyme in an assay that measures the ability of compounds to inhibit the phosphorylation of the exogenous substrate, polyGluTyr (PGT, Sigma™, 4:1). The kinase domain of the human TrkA receptor is expressed in Sf9 insect cells as a histidine (His)-fusion protein using a baculovirus expression system. The protein is purified from the lysates of these cells using an Ni-NTA affinity column. After the recombinant enzyme is purified, it is activated by incubation with cold ATP. The enzyme assay is performed in a 96-well plate. Test compounds are first dissolved in dimethylsulfoxide (DMSO) and then serially-diluted in a 96-well plate. The serially-diluted compounds are transferred to the 96-well assay plate so that the final concentration of DMSO in the enzyme assay is 1.64%. All assay components are diluted in phosphorylation buffer (20 mm MOPS, 10 mM MgCl2, 1 mM EDTA, 0.015% Brij-35, 0.1 mg/ml BSA, 0.0025% Beta-Mercaptoethanol). The recombinant enzyme is added to the assay plate containing test compound and the reaction is initiated with a substrate solution containing a final concentration of 0.1 mg/ml PGT, 30 uM ATP, and 0.008 mCi/ml ^33P-gammaATP (3000 Ci/mmol)(Perkin Elmer™) After a 1 hour incubation at 30° C., the reaction is terminated with 10% TCA and incubated at 4° C. for 1 hour. The reaction is filtered onto a Unifilter® GF/C™ filter plate (Perkin Elmer™) that has been presoaked with 0.1M NaPyrophosphate. Microscint-20 (Perkin Elmer™) is then added to the dried filter plate and the captured ^33P-phosphorylated PGT is quantitated on a microscintillation plate counter (TopCount•NXT™ (Perkin Elmer™)). Inhibition of the kinase enzymatic activity by the test compound is detected by a reduction in scintillation, and the concentration of compound that is required to inhibit the signal by 50% is reported as the IC50 value for the test compound.

TrkB = molecular target: T2, TrkB (Homo sapiens, UniProt Q16620); experiment: TrkB tyrosine kinase assay (33P phosphorylation of polyGluTyr by recombinant enzyme); format: biochemical; conditions: recombinant kinase domain of human TrkB (amino acids 526-838), PGT substrate, 30 uM ATP
T2 construct: The kinase domain of the human TrkB receptor (amino acids 526-838); His; purchased Invitrogen; host or cells: insect cells
Experimental: The ability of compounds of the present invention to inhibit tyrosine kinase activity of TrkB may be measured using a recombinant enzyme in an assay that measures the ability of compounds to inhibit the phosphorylation of the exogenous substrate, polyGluTyr (PGT, Sigma™, 4:1). The kinase domain of the human TrkB receptor (amino acids 526-838) is expressed in insect cells as a histidine (His)-fusion protein and is commercially available from Invitrogen™. The enzyme assay is performed in a 96-well plate. Test compounds are first dissolved in dimethylsulfoxide (DMSO) and then serially-diluted in a 96-well plate. The serially-diluted compounds are transferred to the 96-well assay plate so that the final concentration of DMSO in the enzyme assay is 1.64%. All assay components are diluted in phosphorylation buffer (20 mm MOPS, 10 mM MgCl2, 1 mM EDTA, 0.015% Brij-35, 0.1 mg/ml BSA, 0.0025% Beta-Mercaptoethanol). The recombinant enzyme is added to the assay plate containing test compound and the reaction is initiated with a substrate solution containing a final concentration of 0.1 mg/ml PGT, 30 uM ATP, and 0.008 mCi/ml ^33P-gammaATP (3000 Ci/mmol) (Perkin Elmer™). After a 1 hour incubation at 30° C., the reaction is terminated with 10% TCA and incubated at 4° C. for 1 hour. The reaction is filtered onto a Unifilter® GF/C™ filter plate (Perkin Elmer™) that has been presoaked with 0.1M NaPyrophosphate. Microscint-20(Perkin Elmer™) is then added to the dried filter plate and the captured ^33P-phosphorylated PGT is quantitated on a microscintillation plate counter (TopCount•NXT™ (Perkin Elmer™)). Inhibition of the kinase enzymatic activity by the test compound is detected by a reduction in scintillation, and the concentration of compound that is required to inhibit the signal by 50% is reported as the IC50 value for the test compound.

T1 sequence (P04629 510-781 limits assumed): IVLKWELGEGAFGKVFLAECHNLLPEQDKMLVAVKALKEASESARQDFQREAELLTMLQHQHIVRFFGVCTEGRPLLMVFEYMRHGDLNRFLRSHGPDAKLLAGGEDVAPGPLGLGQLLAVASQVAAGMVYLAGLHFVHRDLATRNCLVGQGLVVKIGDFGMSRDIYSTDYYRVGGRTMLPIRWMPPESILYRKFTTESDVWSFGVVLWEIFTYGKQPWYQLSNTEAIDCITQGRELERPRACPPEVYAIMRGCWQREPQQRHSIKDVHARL
T2 sequence (Q16620 510-822): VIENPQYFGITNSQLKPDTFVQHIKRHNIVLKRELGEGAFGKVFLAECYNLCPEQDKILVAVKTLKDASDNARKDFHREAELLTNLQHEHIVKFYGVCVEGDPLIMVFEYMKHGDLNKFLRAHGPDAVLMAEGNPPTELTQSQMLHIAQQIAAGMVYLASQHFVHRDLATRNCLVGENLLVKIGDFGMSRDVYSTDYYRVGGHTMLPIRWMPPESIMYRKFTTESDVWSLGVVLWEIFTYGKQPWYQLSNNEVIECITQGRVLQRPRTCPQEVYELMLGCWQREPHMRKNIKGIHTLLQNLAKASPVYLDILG

Structure (SMILES) | IC50 (TrkA) | IC50 (TrkB)
C[C@H](Nc1nc(Nc2cc(C3CC3)n[nH]2)c2cccn2n1)c1ccc(F)cc1 [Compound 2, N^4-(3-cyclopropyl-1H-pyrazol-5-yl)-N^2-((1S)-1-(4-fluorophenyl)ethyl)pyrrolo[2,1-f][1,2,4]triazine-2,4-diamine] | 0.0001 µM | 0.0003 µM
O[C@H]1CC[C@H](Nc2nc(Nc3cc(C4CC4)n[nH]3)c3cccn3n2)CC1 [Compound 38, trans-4-((4-((3-cyclopropyl-1H-pyrazol-5-yl)amino)pyrrolo[2,1-f] [1,2,4]triazin-2-yl)amino) cyclohexanol] | 0.0005 µM | 0.0009 µM
c1cc2c(Nc3cc(C4CC4)n[nH]3)nc(N[C@H]3CCNC3)nn2c1 [Compound 41, N^4-(3-cyclopropyl-1H-pyrazol-5-yl)-N^2-((3S)-3-pyrrolidinyl)pyrrolo [2,1-f][1,2,4]triazine-2,4-diamine] | 0.018 µM | 0.031 µM
O=C(CNc1nc(Nc2cc(C3CC3)n[nH]2)c2cccn2n1)Nc1nccs1 [Compound 43, 2-((4-((3-cyclopropyl-1H-pyrazol-5-yl)amino)pyrrolo[2,1-f][1,2,4]triazin-2-yl)amino)-N-1,3-thiazol-2-ylacetamide] | 0.0003 µM | 0.0003 µM
O=C(Nc1nccs1)[C@H](Cc1ccccc1)Nc1nc(Nc2cc(C3CC3)[nH]n2)c2cccn2n1 [Compound 44, (2S)-2-((4-((5-cyclopropyl-1H-pyrazol-3-yl)amino)pyrrolo[2,1-f][1,2,4]triazin-2-yl)amino)-3-phenyl-N-1,3-thiazol-2-ylpropanamide] | 0.001 µM | 0.002 µM

The next lines start with the values.

IC50 (TrkA) | IC50 (TrkB) | Structure (SMILES)
0.074 µM | 0.225 µM | Cc1cc(Nc2nc(NC3CCCCC3)nn3cccc23)[nH]n1 [Compound 9, N^2-cyclohexyl-N^4-(5-methyl-1H-pyrazol-3-yl)pyrrolo[2,1-f] [1,2,4]triazine-2,4-diamine]
0.006 µM | 0.035 µM | NC1CCCC(Nc2nc(Nc3cc(C4CC4)n[nH]3)c3cccn3n2)C1 (centres unmarked) [Compound 12, N^2-(3-aminocyclohexyl)-N^4-(3-cyclopropyl-1H-pyrazol-5-yl) pyrrolo[2,1-f][1,2,4]triazine-2,4-diamine]
0.0007 µM | 0.0007 µM | C[C@H](Nc1nc(Nc2cc(-c3ccccc3)n[nH]2)c2cccn2n1)c1ccc(F)cc1 [Compound 28, N^2-((1S)-1-(4-fluorophenyl)ethyl)-N^4-(3-phenyl-1H-pyrazol-5-yl) pyrrolo[2,1-f][1,2,4]triazine-2,4-diamine]
0.003 µM | 0.004 µM | CCC(O)CNc1nc(Nc2cc(C3CC3)n[nH]2)c2cccn2n1 (centres unmarked) [Compound 40, 1-((4-((3-cyclopropyl-1H-pyrazol-5-yl)amino)pyrrolo[2,1-f][1,2,4]triazin-2-yl)amino)-2-butanol]
0.012 µM | 0.005 µM | CC(C)[C@H](CO)NC(=O)[C@H](C)Nc1nc(Nc2cc(C3CC3)n[nH]2)c2cccn2n1 [Compound 49, (2S)-2-((4-((3-cyclopropyl-1H-pyrazol-5-yl)amino)pyrrolo[2,1-f][1,2,4]triazin-2-yl)amino)-N-((1R)-1-(hydroxymethyl)-2-methylpropyl)propanamide]
